# According to US10238676B2, “Application of ginsenoside RG3 in preparing medicine for preventing and/or treating dementia, and medicine for treating dementia” (priority 2013, dated 2019):
# Assays:
# [1] = tested on: patients with Alzheimer's disease; assay: Revised Hasegawa dementia scale (HDS-R) scoring of patients with Alzheimer's disease; format: in vivo, human
# Protocol: Both groups take medicine for 12 continuous weeks. 2 ml of cerebrospinal fluid is collected by lumbar puncture, and is stored at −80° C., the β-amyloid protein (Aβ) content is determined by using enzyme-linked immunosorbent assay (ELISA). A revised Hasegawa dementia scale (HDS-R) is used to score, and the scores before and after treatment are compared, increasing in scores means validness, and unchanging or decreasing in scores means invalidness. The enumeration data adopts χ^2 test, the comparison of measurement data adopts t-test, all data is processed by adopting SPSS12.0 statistical software.
# Analysis on the clinical therapeutic effect of the two groups.
# [2] = tested on: intracerebral cholinergic nerve system of rat model with Alzheimer's disease; assay: AChE positive nerve fiber density of cortex and hippocampal formation, rat model with Alzheimer's disease (D-galactose + IBO); format: in vivo, Wistar rats; details: AD model rats, Huperzine A 0.3 mg/kg/d, 6 weeks
# Description: 60 Wistar rats each of which having the body weight of 300-500 g are randomly divided into 6 groups, with 10 in each group, and the groups are named a preliminary elder normal control group, a preliminary elder AD model group, a positive medicine Huperzine A group, and high-dose, medium-dose and low-dose of Ginsenoside Rg3 topical preparation groups according to different treatment methods, respectively. The rats are bred in separate cages, each holding 4-5 rats, with natural lighting and random drinking and feeding provided. Physiological saline is injected in the abdominal cavity and grain of each rat in the preliminary elder normal control group; Galactose intraperitoneal injection and IBO intracerebral injection are given to all rats in the preliminary elder AD model group, the positive medicine Huperzine A group, and the high-dose, medium-dose and low-dose Ginsenoside Rg3 topical preparation groups; while the rats in the Huperzine A group and the high-dose, medium-dose and low-dose of Ginsenoside Rg3 topical preparation groups are subjected to D-galactose injection for modeling, rat of each group is given Huperzine A 0.3 mg/kg/d and Ginsenoside Rg3 10, 5, 2.5 mg/kg/d respectively. Ginsenoside Rg3 is applied to both sides of the nose of each rat of Ginsenoside Rg3 topical preparation groups. All the rats are subjected to the medicines continuously for 6 weeks and then intracerebral bilateral Meynert nuclei injection is carried out. Reference is made to a rat cerebral stereotaxic atlas for Meynert nuclei localization, and localization coordinates are AP-0.8 mm, Late 2.6 mm and DV 8.2 mm During intracerebral injection, a rat is anesthetized with 3% pentobarbital sodium (30 mg/kg) and then immobilized to a cerebral stereotaxic apparatus, physiological saline dissolved IBO (injection 1 μl for each side containing 5 μg of IBO) or 1 μl normal saline is injected slowly into a Meynert nucleus, each side takes injection for 5 minutes, and needle retaining for 10 minutes, wherein all the rats are subjected to cerebral perfusion with 4% paraformaldehyde after modeling and are then immobilized for 24 hours, and the brain is put in a sucrose phosphate buffer until brain tissue blocks sink, the blocks are frozen in a incubator and serially sectioned to […] in thickness. The sections are subjected to acetycholinesterase (AChE) histochemical staining by methods recommended by Hedreen, et al. Observation is given to the frontal lobe, the parietal lobe, the occipital lobe and the entorhinal cortex (layer II) as well as parts in a hippocampal CA1 region of the hippocampal formation such as a stratum oriens, a stratum radiatum, a stratum lacunosum-moleculare and a stratum moleculare of dentate gyrus for observing their AChE positive nerve fiber densities, and the AChE positive nerve fiber densities are counted with a number of intersections of positive fibers with a standard grid by using a micrometer used for a microscope.
# A significance level a is equal to 0.05.
# rat blood-brain barrier = details: rats drenched with borneolum syntheticum paraffin oil solution; cited from earlier work
# [3] = of 18 patients per group, 12 weeks
smiles,measurement,setting,value
"COc1cc2c(cc1OC)C(=O)C(CC1CCN(Cc3ccccc3)CC1)C2 (centres unmarked) [Donepezil, donepezil, reference compound]",effective rate (patients increased in HDS-R scores),"[1]; 18 AD patients per group, Rg3 oral liquid 10 mg/d or donepezil 5 mg/d, 12 weeks",72.2%
same,"Scores of clinical symptom (HDS-R), post treatment","[1]; AD inpatients, n = 18, Rg3 oral liquid 10 mg/d or donepezil 5 mg/d orally, 12 weeks",17.3 ± 9.6
same,"Scores of clinical symptom (HDS-R), before treatment","[1]; AD inpatients, n = 18 per group, baseline",13.5 ± 4.2^Δ
same,number of patients constant in scores,[1]; [3],3
same,number of patients decreased in scores,[1]; [3],2
same,number of patients increased in scores of clinical symptom,[1]; [3],13
"C/C=C1\[C@H]2C=C(C)C[C@]1(N)c1ccc(=O)[nH]c1C2 [Huperzine, Huperzine A, reference compound]",N Entorhinal cortex AchE positive nerve fiber density,[2],132.4 ± 19.2^# 10^2 · mm^−2
same,N Frontal lobe AchE positive nerve fiber density,[2],122.1 ± 16.1^## 10^2 · mm^−2
same,N Occipital lobe AchE positive nerve fiber density,[2],131.6 ± 9.0^Δ 10^2 · mm^−2
same,Parietal lobe AchE positive nerve fiber density,[2],108.7 ± 15.8^##Δ 10^2 · mm^−2
same,N Stratum lacunosum-moleculare AchE positive nerve fiber density,[2]; hippocampal formation,83.3 ± 9.6 10^2 · mm^−2
same,N Stratum moleculare of dentate gyrus AchE positive nerve fiber density,[2]; hippocampal formation,120.0 ± 10.7^# 10^2 · mm^−2
same,N Stratum oriens AchE positive nerve fiber density,[2]; hippocampal formation,138.7 ± 20.1 10^2 · mm^−2
same,N Stratum radiatum AchE positive nerve fiber density,[2]; hippocampal formation,121.1 ± 15.2 10^2 · mm^−2
CC1(C)C2CCC1(C)C(O)C2 (centres unmarked) [borneolum syntheticum],time after drench at which tight junction changes start,rat blood-brain barrier,4 h
same,time at which tight junction changes reach peak,rat blood-brain barrier,8 h
same,time at which tight junction returns to normal,rat blood-brain barrier,48 h
